Experimental findings from patent publication US6559281B1, “Non-naturally occurring synthetic lytic peptides” (priority 1993, dated 2003) are described below.

Where two headings read alike, the source gives them in different places.

For one test, the system named is Pseudomonas aeruginosa. The format is cell-based. The settings on record: clinical isolate, 37° C. for one hour; for # of Survivors: minus peptide control 100,000; for % of Control: survivors. As to the method:
(§1) In this test, antibiotic resistant clinical isolates of Pseudomonas aeruginosa and Staphylococcus aureus were obtained. The lytic peptide bioassay was performed as described below.
(§2) A flask containing 49 ml of nutrient broth was inoculated with 1 ml of an overnight culture of the test bacteria. The culture was allowed to grow to mid-log phase at 37° C. with shaking (approximately 4 hours). When the cells reached the correct density, the cells were transferred to a sterile tube and centrifuged for 10 minutes at 3000 rpm. The pellet was resuspended in 3 ml of phosphate buffer and centrifuged for 10 minutes at 3000 rpm. The pellet was resuspended once again in sufficient (but measured) volume to calculate the absorbance of the suspension at 600 nm. Using the resulting absorbance and a previously constructed growth curve, the required dilution to achieve a concentration of 10^6 cells/ml was determined.
(§3) The test culture tubes for the bioassay contained 800 μl of phosphate buffer, pH 7.0, 100 μl of cells at 10^6 cells/ml and 100 μl of peptide solution (10 μM to 1 mM). The final concentration of peptide in the assay was from 1 μM to 100 μM. A reaction system minus peptide was included as a control. The tubes were incubated at 37° C. for one hour.
(§4) After the incubation period two 1:10 serial dilutions in phosphate buffer were made for each culture(three 1:10 serial dilutions for the control culture). […] of each dilution was spread on a nutrient agar plate, in duplicate and incubated overnight at 37° C. The following day, the number of colonies on the control plates was counted to determine the starting number of cells in the assay tubes. The number of cells surviving the assay in the presence of peptide was also counted.

The subject of a further test is Staphylococcus aureus. Put plainly: In vitro lysis of pathogenic bacteria (lytic peptide bioassay, colony count of survivors). The settings on record: clinical isolate, 37° C. for one hour; for # of Survivors: minus peptide control 50,000; for % of Control: survivors. The format is cell-based. The procedure:
as §1, §2, §3, §4

Regarding “Ala Val Lys Arg Val Gly Arg Arg Leu Lys Lys Leu Ala Arg Lys Iso Ala Arg Leu Gly Val Ala Phe [SEQ ID NO. 14]”, the “# of Survivors” value was 100,000 in the test with Pseudomonas aeruginosa (peptide 1 μM), 2 in the test with Pseudomonas aeruginosa (peptide 10 μM), 50,000 with Staphylococcus aureus (peptide 1 μM) and 2,299 in the test with Staphylococcus aureus (peptide 10 μM). For the same substance, the “% of Control” value amounted to 100% with Pseudomonas aeruginosa (peptide 1 μM), 0.002% in the test on Pseudomonas aeruginosa (peptide 10 μM), 100% in the test on Staphylococcus aureus (peptide 1 μM) and 4.6% in the test with Staphylococcus aureus (peptide 10 μM).
